The results in this text go back to ChEMBL document CHEMBL5052841, “Usp19 inhibitors for use in therapy” (2020).

SMILES strings stand for the structures. A value given as a limit tells only on which side of the number the result lay.

For this assay, the target named is T1, Ubiquitin carboxyl-terminal hydrolase 19 (Homo sapiens, UniProt O94966).
T1 sequence (O94966 whole entry): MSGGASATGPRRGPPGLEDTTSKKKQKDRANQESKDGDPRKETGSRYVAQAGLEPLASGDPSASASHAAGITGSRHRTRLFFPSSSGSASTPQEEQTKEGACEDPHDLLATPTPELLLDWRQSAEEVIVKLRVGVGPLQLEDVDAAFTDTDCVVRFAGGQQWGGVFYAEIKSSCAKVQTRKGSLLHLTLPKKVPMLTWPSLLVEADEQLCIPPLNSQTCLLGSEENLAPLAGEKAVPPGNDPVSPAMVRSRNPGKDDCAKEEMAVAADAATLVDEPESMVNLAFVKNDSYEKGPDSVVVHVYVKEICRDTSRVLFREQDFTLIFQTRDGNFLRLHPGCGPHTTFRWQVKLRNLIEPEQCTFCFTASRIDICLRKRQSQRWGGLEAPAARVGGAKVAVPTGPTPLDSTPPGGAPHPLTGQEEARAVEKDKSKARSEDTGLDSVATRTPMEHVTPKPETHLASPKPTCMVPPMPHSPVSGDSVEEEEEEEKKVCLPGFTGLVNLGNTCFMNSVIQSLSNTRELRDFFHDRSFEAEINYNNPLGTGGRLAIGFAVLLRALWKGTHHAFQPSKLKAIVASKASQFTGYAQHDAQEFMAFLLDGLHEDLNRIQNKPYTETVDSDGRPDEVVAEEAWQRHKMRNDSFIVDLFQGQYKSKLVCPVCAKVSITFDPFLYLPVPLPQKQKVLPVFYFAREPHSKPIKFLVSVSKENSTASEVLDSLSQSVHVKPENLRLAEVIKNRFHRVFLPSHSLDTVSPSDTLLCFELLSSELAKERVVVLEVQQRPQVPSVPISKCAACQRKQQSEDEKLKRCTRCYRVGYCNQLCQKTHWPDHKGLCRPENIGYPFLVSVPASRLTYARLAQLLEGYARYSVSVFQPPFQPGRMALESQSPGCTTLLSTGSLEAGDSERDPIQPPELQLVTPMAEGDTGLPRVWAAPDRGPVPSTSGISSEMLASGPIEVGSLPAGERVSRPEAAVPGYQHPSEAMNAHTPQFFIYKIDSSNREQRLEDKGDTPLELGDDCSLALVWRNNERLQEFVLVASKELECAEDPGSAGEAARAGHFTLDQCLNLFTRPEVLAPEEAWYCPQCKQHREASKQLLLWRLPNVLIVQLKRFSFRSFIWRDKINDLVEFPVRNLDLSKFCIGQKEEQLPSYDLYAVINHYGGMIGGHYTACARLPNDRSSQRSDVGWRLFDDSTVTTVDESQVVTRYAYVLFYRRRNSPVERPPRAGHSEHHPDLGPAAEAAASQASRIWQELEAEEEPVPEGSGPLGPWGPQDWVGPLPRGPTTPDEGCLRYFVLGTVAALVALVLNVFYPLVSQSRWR
Put plainly: Inhibition of C-terminal His6-tagged recombinant human USP19 using iso-peptide ubiquitin-Lys-TAMRA as substrate incubated for 30 mins and measured after 90 mins by fluorescent polarization assay.
For the molecule `C[C@H](CC1CCCCC1)C(=O)N1CCC(O)(Cn2cc(C(=O)N(C)C)c(-c3ccc(CO)cc3)cc2=O)C2(CCCC2)C1` (stereo partly drawn), the IC50 was less than 500 nM. Regarding `C[C@H](CC1CCCCC1)C(=O)N1CC[C@@](O)(Cn2cc(C(=O)N(C)C)c(-c3ccccc3F)cc2=O)C(C)(C)C1`, the IC50 is less than 500 nM.

Consider `C[C@H](CC1CCCCC1)C(=O)N1CC[C@@](O)(Cn2cc(C(=O)N3CCOCC3)c(-c3ccccc3)cc2=O)C2(CCCC2)C1`, for which the half-maximal inhibitory concentration (IC50) is less than 500 nM.

For `C[C@H](CC1CCCCC1)C(=O)N1CC[C@@](O)(Cn2cc(C(=O)N(C)C)c(-c3ccccc3F)cc2=O)C2(CCCC2)C1`, the IC50 was less than 500 nM.

For the molecule `C[C@H](CC1CCC1)C(=O)N1CC[C@@](O)(Cn2cc(C(=O)N3CCNCC3)c(-c3ccccc3F)cc2=O)C2(CCCC2)C1`, the half-maximal inhibitory concentration (IC50) was less than 500 nM. With `C[C@H](CC1CCCCC1)C(=O)N1CCC(O)(Cn2cnc(-c3ccccc3F)cc2=O)C2(CCCC2)C1` (stereo partly drawn) the figure was less than 500 nM; with `C[C@H](CC1CCCCC1)C(=O)N1CC[C@@](O)(Cn2cc(C(=O)N(C)C)c(-c3ccccc3)cc2=O)C2(CCCC2)C1`, less than 500 nM. With `C[C@H](CC1CCCCC1)C(=O)N1CCC(O)(Cn2cnc(-c3ccccc3)cc2=O)C(C)(C)C1` (stereo partly drawn) the figure was less than 500 nM.

On to `C[C@H](CC(C)(F)F)C(=O)N1CC[C@@](O)(Cn2cnc(-c3ccccc3)cc2=O)C2(CCCC2)C1`, for which the IC50 is less than 500 nM. With `C[C@H](CC(F)(F)F)C(=O)N1CC[C@@](O)(Cn2cnc(-c3cccc(F)c3)cc2=O)C2(CCCC2)C1` the figure was less than 500 nM.

Regarding `C[C@H](CC1CCCCC1)C(=O)N1CCC(O)(Cn2cc(C(=O)N3CCOCC3)c(-c3ccccc3)cc2=O)C(C)(C)C1` (stereo partly drawn), the half-maximal inhibitory concentration (IC50) was less than 500 nM. Consider `C[C@H](CC1CCCCC1)C(=O)N1CC[C@@](O)(Cn2cc(C(=O)N(C)C)c(-c3ccccc3)cc2=O)C(C)(C)C1`, for which the IC50 was less than 500 nM. Take `C[C@H](CC1CCCCC1)C(=O)N1CCC(O)(Cn2cc(C(=O)N(C)C)c(Cl)cc2=O)C2(CCCC2)C1` (stereo partly drawn): the IC50 is less than 500 nM. For the molecule `C[C@H](CC1CCCCC1)C(=O)N1CC[C@@](O)(Cn2cc(C(=O)N3CCN(C)CC3)c(-c3ccccc3)cc2=O)C2(CCCC2)C1`, the IC50 was less than 500 nM. With `CC(C)N(C)C(=O)c1cn(CC2(O)CCN(C(=O)[C@H](C)CC3CCCCC3)CC2(C)C)c(=O)cc1-c1ccccc1` (stereo partly drawn) the figure was less than 500 nM; with `O=C(c1cn(C[C@]2(O)CCN(C(=O)[C@H](CO)CC(F)(F)F)CC23CCCC3)c(=O)cc1-c1ccccc1)N1CCNCC1`, less than 500 nM. With `C[C@H](CC1CCCCC1)C(=O)N1CC[C@@](O)(Cn2cc(C(=O)N3CCNCC3)c(C3CC3)cc2=O)C2(CCCC2)C1`, the IC50 is less than 500 nM. With `C[C@H](CC1CCCCC1)C(=O)N1CCC(O)(Cn2cc(C(=O)N(C)C)c(-c3ccccc3)cc2=O)C2(CCCCC2)C1` (stereo partly drawn) the figure was less than 500 nM; with `C[C@H](CC1CCCCC1)C(=O)N1CCC(O)(Cn2cc(C(=O)N3CCNCC3)c(-c3ccccc3)cc2=O)C2(CCCCC2)C1` (stereo partly drawn), less than 500 nM.

In the case of `CN(C)C(=O)c1cn(C[C@]2(O)CCN(C(=O)[C@H](CO)CC3CCCCC3)CC2(C)C)c(=O)cc1-c1ccccc1`, the IC50 was less than 500 nM. As for `C[C@H](CC(F)(F)F)C(=O)N1CC[C@@](O)(Cn2cnc(-c3ccccc3F)cc2=O)C2(CCCC2)C1`, the IC50 was less than 500 nM.

With `CC(CN1CCCCC1)C(=O)N1CCC(O)(Cn2cc(C(=O)N(C)C)c(-c3ccccc3)cc2=O)C2(CCCC2)C1` (stereo not drawn), the IC50 was no less than 5000 nM. Take `C[C@H](CC1CCCCC1)C(=O)N1CCC(O)(Cn2cc(C(=O)N3CCN(C)CC3)c(-c3ccccc3)cc2=O)C(C)(C)C1` (stereo partly drawn): the half-maximal inhibitory concentration (IC50) is less than 500 nM. Turning to `CN(C)C(=O)c1cn(C[C@]2(O)CCN(C(=O)[C@H](CO)CC(F)(F)F)CC23CCCC3)c(=O)cc1-c1ccccc1`, the half-inhibitory concentration (IC50) is less than 500 nM.

Turning to `C[C@H](CC(F)(F)F)C(=O)N1CC[C@@](O)(Cn2cnc(-c3ccccc3)cc2=O)C2(CCCC2)C1`, the 50% inhibitory concentration (IC50) was less than 500 nM. In the case of `CN(C)C(=O)c1cn(C[C@]2(O)CCN(C(=O)[C@H](CCO)CC3CCCCC3)CC2(C)C)c(=O)cc1-c1ccccc1` it was less than 500 nM; in that of `C[C@H](CC1CCC1)C(=O)N1CC[C@@](O)(Cn2cc(C(=O)N(C)C)c(-c3ccccc3)cc2=O)C2(CCCC2)C1`, less than 500 nM; in that of `CC(=O)N1CCN(C(=O)c2cn(CC3(O)CCN(C(=O)[C@H](C)CC4CCCCC4)CC3(C)C)c(=O)cc2-c2ccccc2)CC1` (stereo partly drawn), less than 500 nM. For `C[C@H](CC1CCC1)C(=O)N1CC[C@@](O)(Cn2cc(C(=O)N(C)C)c(-c3ccccc3F)cc2=O)C2(CCCC2)C1`, the concentration for half-maximal inhibition (IC50) was less than 500 nM.

In the case of `C[C@@H]1CN(C(=O)c2cn(C[C@]3(O)CCN(C(=O)[C@H](C)CC4CCCCC4)CC3(C)C)c(=O)cc2-c2ccccc2)CCN1`, the IC50 was less than 500 nM.

As to `C[C@H](CC1CC1)C(=O)N1CCC(O)(Cn2cc(C(=O)N(C)C)c(-c3ccccc3)cc2=O)C2(CCCC2)C1` (stereo partly drawn), the concentration for half-maximal inhibition (IC50) is less than 500 nM.

Turning to `CC(Cc1ccccc1)C(=O)N1CCC(O)(Cn2cnc(-c3ccccc3F)cc2=O)CC1` (racemic), the IC50 is no less than 5000 nM. Regarding `C[C@H](CC1CCCCC1)C(=O)N1CCC(O)(Cn2cc(C(=O)N(C)C)c(-c3ccsc3)cc2=O)C2(CCCC2)C1` (stereo partly drawn), the concentration for half-maximal inhibition (IC50) is less than 500 nM.

In the case of `C[C@H](CC1CCCCC1)C(=O)N1CC[C@@](O)(Cn2cc(C(=O)N3CCNC[C@H]3CO)c(-c3ccccc3)cc2=O)C(C)(C)C1`, the IC50 was less than 500 nM. For `C[C@H](CC1CCCCC1)C(=O)N1CC[C@@](O)(Cn2cc(C(=O)N3CCC(O)CC3)c(-c3ccccc3)cc2=O)C(C)(C)C1`, the half-maximal inhibitory concentration (IC50) is less than 500 nM. `C[C@H](CC(F)(F)F)C(=O)N1CC[C@@](O)(Cn2cc(C(=O)N(C)C)c(-c3ccccc3)cc2=O)C2(CCCC2)C1`: the IC50 is less than 500 nM. Take `CC(C)CC(C)C(=O)N1CCC(O)(Cn2cc(C(=O)N(C)C)c(-c3ccccc3)cc2=O)C2(CCCC2)C1` (stereo not drawn): the IC50 is less than 500 nM. With `C[C@H](CC1CCCCC1)C(=O)N1CCC(O)(Cn2cnc(-c3ccc(CO)cc3)cc2=O)C(C)(C)C1` (stereo partly drawn) the figure was less than 500 nM; with `C[C@H](CC1CCCCC1)C(=O)N1CC[C@@](O)(Cn2cc(C(=O)N3CCNCC3)c(-c3ccccc3)cc2=O)C(C)(C)C1`, less than 500 nM. With `C[C@H](CC1CCCCC1)C(=O)N1CC[C@@](O)(Cn2cc(C(=O)O)c(-c3ccccc3)cc2=O)C2(CCCC2)C1` the figure was less than 500 nM; with `O=C(C1CCNC1c1ccccc1)N1CC[C@@](O)(Cn2cnc(-c3ccccc3)cc2=O)C2(CCCC2)C1` (stereo partly drawn), less than 500 nM. With `O=C([C@@H]1CCNC[C@H]1c1ccccc1)N1CCC(O)(Cn2cnc(-c3ccccc3)cc2=O)C2(CCCC2)C1` (stereo partly drawn) the figure was less than 500 nM; with `C[C@H](CC(F)(F)F)C(=O)N1CC[C@@](O)(Cn2cc(C(=O)N3CCN(C)CC3)c(-c3ccccc3)cc2=O)C2(CCCC2)C1`, less than 500 nM. For the molecule `C[C@H](CC1CCC1)C(=O)N1CC[C@@](O)(Cn2cc(C(=O)N3CCNCC3)c(-c3ccccc3)cc2=O)C2(CCCC2)C1`, the half-inhibitory concentration (IC50) was less than 500 nM. For the molecule `CC(C)N(C)C(=O)c1cn(C[C@]2(O)CCN(C(=O)[C@H](C)CC3CCCCC3)CC2(C)C)c(=O)cc1-c1ccccc1`, the IC50 is less than 500 nM. In the case of `C[C@H](CC1CCCCC1)C(=O)N1CCC(O)(Cn2cc(C(=O)N(C)C)c(-c3cccc(CO)c3)cc2=O)C2(CCCC2)C1` (stereo partly drawn) it was less than 500 nM; in that of `COC[C@H](CC1CCCCC1)C(=O)N1CC[C@@](O)(Cn2cc(C(=O)N(C)C)c(-c3ccccc3)cc2=O)C(C)(C)C1`, less than 500 nM; in that of `O=C(C(F)CC1CCCCC1)N1CCC(O)(Cn2cnc(-c3ccccc3F)cc2=O)CC1` (racemic), no less than 50000 nM.
